Measured values published in patent US9115012B2, “Method of improving the water quality in aquatic ecosystems” (Kemin Industries, Inc., priority 2010, dated 2015).

Tested on: Vibrio spp. isolated from shrimp pond water
Experiment: Disk diffusion on Vibrio isolation agar (zone of inhibition)
Format: cell-based
Details: 10 μl on disk, extract of 20 g powder in 100 ml water, chloramphenicol 25 μg/ml, 37° C.
Experimental: In another experiment, the effect of the nut gall extract on the growth of Vibrio spp. isolated from shrimp pond water was tested. The extract was prepared by adding 20 g of nut gall powder into 100 ml of water, soaking for one hour followed by centrifugation. Chloramphenicol (25 μg/ml) was taken as positive control. Vibrio isolation agar was prepared and the agar plates were cooled to room temperature. Sterile disk was placed in the centre of agar plate, after inoculating Vibrio spp. using a sterile cotton swab. 10 μl of extract/antibiotic was added to the disk and incubated at 37° C. in an incubator.

O=C(N[C@H](CO)[C@H](O)c1ccc([N+](=O)[O-])cc1)C(Cl)Cl [Chloramphenicol]
zone of inhibition at 25 µg/mL: 13 mm
